Assay results as given in paper PMC4942054 (PLoS ONE, 2016).

Molecular target: T1, dihydrofolate reductase (DHFR) from chicken liver (Gallus gallus, UniProt P00378)
T1 sequence (P00378 1-189): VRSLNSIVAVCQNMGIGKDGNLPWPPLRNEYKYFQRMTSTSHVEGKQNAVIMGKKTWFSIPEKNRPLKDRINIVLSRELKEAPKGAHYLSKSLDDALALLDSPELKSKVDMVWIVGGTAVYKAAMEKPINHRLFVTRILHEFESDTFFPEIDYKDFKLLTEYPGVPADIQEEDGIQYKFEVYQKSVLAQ
Experiment: DHF-dependent NADPH oxidation, absorbance at […] nm
Type: biochemical
Conditions: 0.187 mM DHF, 0.137 mM NADPH, 0.5 M KCl, 0.05 M Tris-HCl pH 7.5, 25°C, 40 min; partially purified enzyme 35 μg/ml; sample released from PEG40 conjugate at pH 3.0, equipotent to MTX-hexamethylenamine

- IC50: 190 ± 7 nM
SMILES: CN(Cc1cnc2nc(N)nc(N)c2n1)c1ccc(C(=O)N[C@@H](CCC(=O)NCCCCCCN)C(=O)O)cc1 [MTX-hexamethylenamine]
